Experimental data from ChEMBL document CHEMBL1158236, “Two new naphthoquinones with antiviral activity from Rhinacanthus nasutus” (J Nat Prod, 1996).
In brackets after ≈: the same amount, converted by molar mass.

Tests used:
Type in all cases: functional, organism-based
Influenza A virus = test: Antiviral activity against influenza A virus by hemadsorption inhibition assay
Human betaherpesvirus 5 = test: Antiviral activity against human cytomegalovirus by plaque-neutralization assay
Murid betaherpesvirus 1 [1] = test: Antiviral activity against mouse cytomegalovirus by plaque-neutralization assay
Murid betaherpesvirus 1 [2] = test: Antiviral activity against mouse cytomegalovirus assessed as effect on virus-induced cytopathic effect
[3] = tested on: Respiratory syncytial virus; test: Antiviral activity against respiratory syncytial virus assessed as effect on virus-induced cytopathic effect; details: human respiratory syncytial virus
Human alphaherpesvirus 2 = test: Antiviral activity against herpes simplex virus type 2 assessed as effect on virus-induced cytopathic effect

| Structure (SMILES) | EC50 (Human betaherpesvirus 5) | EC50 (Murid betaherpesvirus 1 [1]) | EC50 (Murid betaherpesvirus 1 [2]) | other results |
| --- | --- | --- | --- | --- |
| NC12CC3CC(CC(C3)C1)C2 [AMANTADINE] | – | – | – | EC50 (Influenza A virus): 0.054 µg/mL (≈ 0.357 µM) |
| CC(C)(COC(=O)c1ccc2c(c1)OCO2)CC1=C(O)C(=O)c2ccccc2C1=O | 0.22 µg/mL (≈ 0.539 µM) | 9.5 µg/mL (≈ 23.3 µM) | 9.5 µg/mL (≈ 23.3 µM) | – |
| C/C=C(\C)CC/C=C(\C)C(=O)OCC(C)(C)CC1=C(O)C(=O)c2ccccc2C1=O [RHINACANTHIN C] | 0.02 µg/mL (≈ 0.0487 µM) | 0.57 µg/mL (≈ 1.39 µM) | 1.1 µg/mL (≈ 2.68 µM) | – |
| Nc1nc2c(ncn2COC(CO)CO)c(=O)[nH]1 [GANCICLOVIR] | 3.4 µg/mL (≈ 13.3 µM) | 13.8 µg/mL (≈ 54.1 µM) | 5 µg/mL (≈ 19.6 µM) | – |
| NC(=O)c1ncn([C@@H]2O[C@H](CO)[C@@H](O)[C@H]2O)n1 [RIBAVIRIN] | – | – | – | EC50 [3]: 1.8 µg/mL (≈ 7.37 µM) |
| Nc1nc2c(ncn2COCCO)c(=O)[nH]1 [ACYCLOVIR] | – | – | – | EC50 (Human alphaherpesvirus 2): 2.3 µg/mL (≈ 10.2 µM) |
